Assay results as given in patent US20260225997A1, “IONIZABLE AMINE LIPIDS” (Intellia Therapeutics, Inc., priority 2018, published 2026).

How the values were obtained:
[1] = pKa measurement of unformulated amine lipid (fluorescence, method of Jayaraman et al.); assay type: physicochemical; conditions: 100 μM in 0.1 M phosphate buffer pH 4.5-9.0
Protocol: The pKa of each amine lipid was determined according to the method in Jayaraman, et al. (Angewandte Chemie, 2012) with the following adaptations. […] Lipid was diluted to 100 μM in 0.1 M phosphate buffer (Boston Bioproducts) where the pH ranged from 4.5-9.0. Fluorescence intensity was measured using excitation and emission wavelengths of 321 nm and 448 nm.

B2M = B2M editing in mouse liver by NGS after i.v. LNP delivery of Cas9 mRNA and sgRNA; assay type: in vivo; conditions: Example 52: LNP single dose 0.1 mg/kg i.v., CD-1 female mice, sgRNA G650:Cas9 mRNA 1:1, NGS
Protocol: Preparations of various LNP compositions were prepared with amine lipids. In assays for percent liver editing in mice, Cas9 mRNA and chemically modified sgRNA were formulated in LNPs, at either a 1:1 w/w ratio or a 1:2 w/w ratio. LNPs are formulated with a composition of a given ionizable lipid (e.g. an amine lipid), DSPC, cholesterol, and PEG-2k-DMG, with a 6.0 N:P ratio.
LNPs were administered to mice by a single dose at 0.1 mg/kg, unless otherwise noted and genomic DNA was isolated for NGS analysis as described below.
CD-1 female mice, ranging from 6-10 weeks of age were used in each study. Animals were weighed and grouped according to body weight for preparing dosing solutions based on group average weight. LNPs were dosed via the lateral tail vein in a volume of 0.2 mL per animal (approximately 10 mL per kilogram body weight). The animals were periodically observed post dose for adverse effects for at least 24 hours post dose. Animals were euthanized at 6 or 7 days by exsanguination via cardiac puncture under isoflurane anesthesia. Blood was collected into serum separator tubes or into tubes containing buffered sodium citrate for plasma as described herein. For studies involving in vivo editing, liver tissue was collected from each animal for DNA extraction and analysis.
Cohorts of mice were measured for liver editing by Next-Generation Sequencing (NGS).
In brief, to quantitatively determine the efficiency of editing at the target location in the genome, genomic DNA was isolated and deep sequencing was utilized to identify the presence of insertions and deletions introduced by gene editing.
PCR primers were designed around the target site (e.g., B2M), and the genomic area of interest was amplified. Additional PCR was performed according to the manufacturer's protocols (Illumina) to add the necessary chemistry for sequencing. The amplicons were sequenced on an Illumina MiSeq instrument. The reads were aligned to the […] after eliminating those having low quality scores. The resulting files containing the reads were mapped to the reference genome (BAM files), where reads that overlapped the target region of interest were selected and the number of wild type reads versus the number of reads which contain an insertion, substitution, or deletion was calculated.
The editing percentage (e.g., the “editing efficiency” or “percent editing”) is defined as the total number of sequence reads with insertions or deletions over the total number of sequence reads, including wild type.
CD-1 female mice were dosed i.v. at 0.1 mpk or 0.3 mpk. […] For animals dosed with G282 targeting TTR, blood and the liver were collected and serum TTR and editing were measured. For animals dosed with G650 targeting B2M, liver was collected and editing was measured.

TTR [2] = experiment: TTR editing in mouse liver by NGS after i.v. LNP delivery of Cas9 mRNA and sgRNA; assay type: in vivo; conditions: Example 56: 0.1 mpk i.v., CD-1 female mice, 7 days post-dose, G282
Summary of the method: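 Cas9 mRNA and chemically modified sgRNA were co-formulated in LNPs made of an ionizable amine lipid, DSPC, cholesterol and PEG-2k-DMG at a 6.0 N:P ratio. CD-1 female mice aged 6-10 weeks received tail-vein injections of 0.2 mL. Liver genomic DNA was then amplified around the target site and sequenced on an Illumina MiSeq, with editing calculated as indel-containing reads over total reads.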

TTR [3] = experiment: Transthyretin (TTR) ELISA analysis of mouse serum after LNP dosing; assay type: in vivo; conditions: Example 56: 0.1 mpk i.v., 7 days post-dose, G282
Summary of the method: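 Female CD-1 mice aged 6-10 weeks were grouped by body weight and given LNPs by lateral tail vein injection (0.2 mL per animal, about 10 mL per kilogram). Mice were bled by cardiac puncture under isoflurane into serum separator tubes. Serum was diluted 10,000-fold for the 0.1 mpk dose, and total TTR was quantified with a Mouse Prealbumin (Transthyretin) ELISA Kit following the kit directions.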

[4] = LNP average particle size and polydispersity by dynamic light scattering (Malvern Zetasizer); assay type: physicochemical; conditions: Table 3, Example 52: LNP, Cas9 mRNA + sgRNA (G650) 1:1 w/w, N:P 6.0
Excerpt: The LNPs have a size of about 1 to about 1,000 nm, about 10 to about 500 nm, about 20 to about 500 nm, in a sub-embodiment about 50 to about 400 nm, in a sub-embodiment about 50 to about 300 nm, in a sub-embodiment about 50 to about 200 nm, and in a sub-embodiment about 50 to about 150 nm, and in another sub-embodiment about 60 to about 120 nm. Preferably, the LNPs have a size from about 60 nm to about 100 nm. The average sizes (diameters) of the fully formed LNP, may be measured by dynamic light scattering on a Malvern Zetasizer. The LNP sample is diluted in phosphate buffered saline (PBS) so that the count rate is approximately 200-400 kcps. The data is presented as a weighted average of the intensity measure.
The LNPs disclosed herein have a size (e.g. Z-average diameter) of about 1 to about 250 nm. In some embodiments, the LNPs have a size of about 10 to about 200 nm. In further embodiments, the LNPs have a size of about 20 to about 150 nm. In some embodiments, the LNPs have a size of about 50 to about 150 nm. In some embodiments, the LNPs have a size of about 50 to about 100 nm. In some embodiments, the LNPs have a size of about 50 to about 120 nm. In some embodiments, the LNPs have a size of about 60 to about 100 nm. In some embodiments, the LNPs have a size of about 75 to about 150 nm. In some embodiments, the LNPs have a size of about 75 to about 120 nm. In some embodiments, the LNPs have a size of about 75 to about 100 nm. Unless indicated otherwise, all sizes referred to herein are the average sizes (diameters) of the fully formed nanoparticles, as measured by dynamic light scattering on a Malvern Zetasizer. The nanoparticle sample is diluted in phosphate buffered saline (PBS) so that the count rate is approximately 200-400 kcps. The data is presented as a weighted-average of the intensity measure (Z-average diameter).
Dynamic Light Scattering (“DLS”) is used to characterize the polydispersity index (“pdi”) and size of the LNPs of the present disclosure. DLS measures the scattering of light that results from subjecting a sample to a light source. PDI, as determined from DLS measurements, represents the distribution of particle size (around the mean particle size) in a population, with a perfectly uniform population having a PDI of zero.
LNP compositions are analyzed for average particle size, polydispersity index (pdi), total RNA content, encapsulation efficiency of RNA, and zeta potential. LNP compositions may be further characterized by lipid analysis, AF4-MALS, NTA, and/or cryo-EM. Average particle size and polydispersity are measured by dynamic light scattering (DLS) using a Malvern Zetasizer DLS instrument. LNP samples were diluted with PBS buffer prior to being measured by DLS. Z-average diameter which is an intensity-based measurement of average particle size was reported along with number average diameter and pdi. A Malvern Zetasizer instrument is also used to measure the zeta potential of the LNP. Samples are diluted 1:17 (50 μL into 800 μL) in 0.1×PBS, pH 7.4 prior to measurement.

[5] = RNA encapsulation efficiency of LNP (Ribogreen fluorescence assay); assay type: physicochemical; conditions: Table 3, Example 52: LNP, Cas9 mRNA + sgRNA (G650) 1:1 w/w, N:P 6.0; Compound 19 50/9/38/3, others 50/10/38.5/1.5
Protocol: A fluorescence-based assay (Ribogreen®, ThermoFisher Scientific) is used to determine total RNA concentration and free RNA. Encapsulation efficiency is calculated as (Total RNA−Free RNA)/Total RNA. LNP samples are diluted appropriately with 1× TE buffer containing 0.2% Triton-X 100 to determine total RNA or 1× TE buffer to determine free RNA. Standard curves are prepared by utilizing the starting RNA solution used to make the compositions and diluted in 1× TE buffer+/−0.2% Triton-X 100. Diluted RiboGreen® dye (according to the manufacturer's instructions) is then added to each of the standards and samples and allowed to incubate for approximately 10 minutes at room temperature, in the absence of light. A SpectraMax M5 Microplate Reader (Molecular Devices) is used to read the samples with excitation, auto cutoff and emission wavelengths set to 488 nm, 515 nm, and 525 nm respectively. Total RNA and free RNA are determined from the appropriate standard curves.
Encapsulation efficiency is calculated as (Total RNA−Free RNA)/Total RNA. The same procedure may be used for determining the encapsulation efficiency of a DNA-based cargo component. For single-strand DNA Oligreen Dye may be used, and for double-strand DNA, Picogreen Dye.

| Num Ave Size (nm) [4] [nm] | PDI [4] | Z-Ave Size (nm) [4] [nm] | Encapsulation (%) [5] [%] | SMILES | pKa [1] | Editing (%) of B2M in mouse liver (B2M) [%] | Editing % (TTR [2]) [%] | Serum TTR (TTR [3]) [µg/mL] | Serum TTR (% TSS) (TTR [3]) |
| --- | --- | --- | --- | --- | --- | --- | --- | --- | --- |
| – | – | – | – | CCCCCCCCCOC(=O)CCCCCCCN(CCO)CCCCCCCCCC(OCCCCCCCC)OCCCCCCCC [Compound 5] | 7.08 | 13.2 | 9 | 738 | 92 |
| 57.41 | 0.056 | 75.79 | 98 | CCCCCCCCCCOC(CCCCCCCN(CCO)CCCCCCCC(=O)OCCCCCCCCC)OCCCCCCCCCC [Compound 3, nonyl 8-[8,8-didecoxyoctyl(2-hydroxyethyl)amino]octanoate] | 6.19 | 8.8 | – | – | – |
